In patent US20030232383A1, “Novel reagentless sensing system for measuring carbohydrates based on the galactose/glucose binding protein” (priority 2001, published 2003):
Where two headings read alike, the source gives them in different places.

Assays:
[1] = molecular target: calcium binding site of GBP (Escherichia coli, UniProt P0AEE5); conditions: Vyas et al. 1989, cited from earlier work
[2] = molecular target: GBP mutant H152C (His152Cys) (Escherichia coli, UniProt P0AEE5, H175C); format: binding, E. coli
Sequence of GBP mutant H152C (His152Cys) (P0AEE5 24-332 H175C limits assumed): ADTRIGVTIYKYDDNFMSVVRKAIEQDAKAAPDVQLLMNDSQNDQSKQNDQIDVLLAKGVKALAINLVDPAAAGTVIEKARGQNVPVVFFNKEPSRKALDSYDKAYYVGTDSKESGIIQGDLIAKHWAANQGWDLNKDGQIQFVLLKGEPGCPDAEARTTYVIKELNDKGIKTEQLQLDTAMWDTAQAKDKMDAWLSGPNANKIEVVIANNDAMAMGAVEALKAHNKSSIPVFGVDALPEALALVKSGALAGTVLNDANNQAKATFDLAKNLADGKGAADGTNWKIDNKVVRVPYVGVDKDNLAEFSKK
Experimental: (§1) Labeling the mutants of GBP with fluorescent probes. The mutant protein was first dialysed three times against either 10 mM Tris-HCl, 1 mM DTT, 0.2 mM CaCl2, pH 8.0 (for reaction with MDCC) or 10 mM HEPES, 1 mM DTT, 0.2 mM CaCl2, pH 7.4 (for reaction with acrylodan, 1,5-IAEDANS, or IANBD ester). DTT was present in the buffers to reduce any disulfide linkages that may have formed between two protein molecules. The protein was then dialysed three times against the respective buffers (with no DTT) to remove excess of the reducing agent. For the conjugation reaction, a molar ratio of fluorophore to protein of 5:1 was employed. The fluorophores were added slowly to the mutants of GBP (μM concentrations) so as to allow the cysteine residue on all the protein molecules to have an equal opportunity to react with the fluorophore. The solution was stirred constantly in a glass reaction vessel and in the dark for 4 h at 4° C. (with MDCC and acrylodan) or for 2-3 h at RT (with 1,5-IAEDANS or IANBD ester). The conjugated protein was separated from the free fluorophore by running the sample through a Sephadex G-25 column and eluting with the respective buffer.
(§2) Steady-state fluorescence studies of the fluorophore-labeled mutant proteins. The excitation and emission monochromator slit widths were both set at 2 mm. The excitation and emission wavelengths for MDCC, acrylodan, 1,5-IAEDANS, and IANBD ester were 425 nm and 475 nm, 382 nm and 509 nm, 336 nm and 490 nm, and 472 nm and 536 nm, respectively. All data were obtained at RT using quartz cuvettes with sample volumes of 1.5-2 mL. The concentrations of labeled proteins used in the steady-state fluorescence studies were in the 1×10^−7 M range. The conjugates were incubated with various concentrations of glucose and galactose for 15-20 min at RT on a shaker at 400 rpm. The samples were analyzed in the spectrofluorometer under the aforementioned parameters. Calibration plots were obtained by relating the average fluorescence change with the concentration of glucose or galactose in the sample.

[3] = molecular target: GBP mutant G148C (Gly148Cys) (Escherichia coli, UniProt P0AEE5, G171C); format: binding, E. coli
Sequence of GBP mutant G148C (Gly148Cys) (P0AEE5 24-332 G171C limits assumed): as the sequence (P0AEE5 24-332 H175C limits assumed) above, with G148C, C152H counted along it
Experimental: as §1, §2

[4] = molecular target: GBP (Escherichia coli, UniProt P0AEE5); conditions: Miller et al. 1983; read-out: dissociation constants, Kd; cited from earlier work
Sequence of GBP (P0AEE5 24-332): as the sequence (P0AEE5 24-332 H175C limits assumed) above, with C152H counted along it

[5] = molecular target: GBP labeled with D-22 (Escherichia coli, UniProt P0AEE5); assay: Steady-state fluorescence of D-22-labeled (dansylated) GBP; format: binding, E. coli; conditions: addition of 1.6×10^−4 M sugar; protein to fluorophore 1:50, 1:100, 1:200
Sequence of GBP labeled with D-22 (P0AEE5 24-332 limits assumed): as the sequence (P0AEE5 24-332 H175C limits assumed) above, with C152H counted along it
Experimental: Labeling GBP with D-22. GBP was dialysed three times against 0.1 M NaHCO3, pH 9.0. Three conjugation reactions with protein to fluorophore mole ratios of 1:50, 1:100, and 1:200 were carried out. Three microvials, each containing GBP, were placed in an ice bath. The fluorophore was added to the vials in small increments while the solution was being stirred. The mixture was allowed to react in the dark at 4° C. for 1 h. To eliminate the excess of unbound D-22, size exclusion chromatography was employed. A D-Salt Polyacrylamide 6000 desalting column was equilibrated with 10 mM Tris-HCl, pH 8.0. The conjugates were loaded onto the column. Elution of the labeled protein was conducted with the equilibration buffer and the conjugate finally dialysed three times against 10 mM Tris-HCl, pH 8.0.
Steady-state fluorescence studies of the labeled GBP. Fluorescence measurements were conducted with sample volumes of 1.5 mL and in quartz cuvettes. After the addition of 30 μL of D-(+)-galactose and D-(+)-glucose to the conjugate, the solution was allowed to incubate for 15 min at 4° C. while mixing at 400 rpm. The excitation and emission monochromator slit widths were set at 2 mm. The excitation wavelength was 350 nm and emission was detected at 475 nm.

[6] = molecular target: GBP mutant M182C (Met182Cys) (Escherichia coli, UniProt P0AEE5, M205C); assay: Steady-state fluorescence of fluorophore-labeled GBP mutant M182C on ligand binding; parameters: species or system E. coli
Sequence of GBP mutant M182C (Met182Cys) (P0AEE5 24-332 M205C): as the sequence (P0AEE5 24-332 H175C limits assumed) above, with C152H, M182C counted along it
Experimental: as §1, with “(with MDCC and acrylodan) or for 2-3 h at RT (with 1,5-IAEDANS or IANBD ester). The conjugated protein was separated from the free fluorophore by running the sample through a Sephadex G-25 column and eluting with the respective buffer.” left out
Steady-state fluorescence studies of the fluorophore-labeled mutant proteins. […] The concentrations of labeled proteins used in the steady-state fluorescence studies were in the 1×10^−7 M range. […] The samples were analyzed in the spectrofluorometer under the aforementioned parameters. Calibration plots were obtained by relating the average fluorescence change with the concentration of glucose or galactose in the sample.

Sequence of calcium binding site of GBP (P0AEE5 24-332 limits assumed): as the sequence (P0AEE5 24-332 H175C limits assumed) above, with C152H counted along it

## [Tb+3] [terbium]
[1]
  dissociation rate: 0.001 s⁻¹

## [Ca+2] [calcium]
[1]; read-out: dissociation constant
  Kd: 2 µM

## O=C[C@H](O)[C@@H](O)[C@@H](O)[C@H](O)CO [Galactose, D-(+)-galactose]
[2]; H152C labeled with IANBD
  % quenching: 4%
[2]; H152C labeled with MDCC
  % quenching: 19%
[3]; G148C labeled with IAEDANS
  % quenching: 7%
[3]; G148C labeled with MDCC
  % quenching: 16%
[4]
  Kd: 400 µM
[5]
  change of fluorescence signal of dansylated GBP: quenching of the fluorescence signal
[6]; M182C labeled with Acrylodan
  % quenching: 5%
[6]; M182C labeled with MDCC
  % quenching: 6%
